Values quoted from earlier work in patent publication US8193201B2, “Synergistic anti-inflammatory pharmaceutical compositions and related methods using curcuminoids or methylxanthines” (priority 2004, dated 2012).

Test system: PGE2
Conditions: value reported in the literature (Fiebich et al.)

In the case of `Cn1c(=O)c2c(ncn2C)n(C)c1=O` [Caffeine, caffeine], the “median PGE2 inhibitory concentration” value is given as 8.2 µg/mL.
